Measurements reported in PMC13185115, “Photovermellogens: Minimalistic Pyridinium-Based Acylhydrazones with Photoswitchable Basicity for Operation in Aqueous Media” (The Journal of Organic Chemistry, 2026).

What was measured:
Format in all cases: physicochemical
[1] = Thermal Z-P to E-P isomerization of the kinetically trapped conjugate bases at pH 13; settings: 26 µM, pH 13, room temperature, monitored at 429 nm
Description: Having confirmed the photochemical behavior of the protonated forms, we next explored their light-responsiveness in the deprotonated state. […] To probe whether Z-P a–c could nonetheless be generated indirectly, we explored a consecutive photoisomerization–deprotonation sequence. Thus, E-P a–cH^+ was first irradiated at 254 nm and pH 6 to enrich the Z population, followed by immediate adjustment of the solution to pH 13. Under these conditions, transient spectroscopic features were observed, consistent with the kinetic trapping of the metastable Z-P a–c species. […]
To gain further insight into the behavior of the metastable Z-bases, absorbance changes of the kinetically trapped state were monitored over time in the dark for the whole P a–c series. […]
(§1) Figure S169. […] Right: Kinetics (monitored at 429 nm) of the isomerization of Z-P a to E-P a (26 µM) at room temperature. k = 7.2 × 10 –4 s–1.
(§2) Figure S170. […] Right: Kinetics (monitored at 429 nm) of the photoisomerization of Z-P a to E-P a (26 µM) upon irradiation at >495 nm. k = 2.5 × 10 –3 s–1. […]
is in blue. Right: Kinetics (monitored at 456 nm) of the isomerization of Z-P b to E-P b (15 µM) at room temperature. k = 8.9 × 10 –5 s–1. […]
is in blue. Right: Kinetics (monitored at 432 nm) of the isomerization of Z-P c to E-P c (16 µM) at room temperature. k = 8.4 × 10 –5 s–1.

[2] = Irradiation of the conjugate bases (E→Z attempt; Z→E at >495 nm); settings: 26 µM, pH 13, irradiation at >495 nm, monitored at 429 nm
Description: Having confirmed the photochemical behavior of the protonated forms, we next explored their light-responsiveness in the deprotonated state. […] To probe whether Z-P a–c could nonetheless be generated indirectly, we explored a consecutive photoisomerization–deprotonation sequence. Thus, E-P a–cH^+ was first irradiated at 254 nm and pH 6 to enrich the Z population, followed by immediate adjustment of the solution to pH 13. Under these conditions, transient spectroscopic features were observed, consistent with the kinetic trapping of the metastable Z-P a–c species. […] These spectroscopic observations enabled the estimation of virtual pK a values for the Z-enriched solutions (Table and Figures S163–168, SI1), which confirmed the reduced acidity of the NH group in the Z-isomers, presumably arising from intramolecular hydrogen-bond formation.
To gain further insight into the behavior of the metastable Z-bases, absorbance changes of the kinetically trapped state were monitored over time in the dark for the whole P a–c series.
7. Thermal Z-P a-c→E-P a-c isomerizations from the PSS […]
as §1, §2

[3] = Thermal Z-PH+ to E-PH+ back-isomerization kinetics; settings: Arrhenius analysis, 47, 55 and 64 °C, from 254 nm photostationary state
Description: Photoisomerization studies were subsequently carried out in acidic medium (pH = pK a – 2) in order to assess the photoresponse of the protonated species. Under these conditions, the anticipated photoisomerization of the thermally stable E-P a–dH^+ species was investigated by UV–vis absorption spectroscopy under irradiation at 254 nm. […] It is noteworthy that the irradiation wavelength can be extended to 365 nm, yielding virtually the same observations as for 254 nm irradiation (see footnotes of Table ). Irradiation also produced clear NMR spectral changes that support the occurrence of the E→Z isomerization. In essence, the signals Hf–h of the phenyl moiety were only slightly affected, whereas those of the pyridinium and acylhydrazone fragments shifted markedly, consistent with the formation of an intramolecular hydrogen bond in the Z-P a–cH^+ species. The reverse Z→E transformation of the protonated forms P a–cH^+ was also achieved upon irradiation at λ > 420 nm, giving lower quantum yields and less favorable PSDs (Figures S145–S147, S149–154, S1).
5.5. Z-P a-cH+→E-P a-cH+ thermal back-isomerization kinetics.
Figure S155. Absorption spectrum variation during 48h at room temperature from the PSS reached for P aH·Cl (7µM, pH 6, Red) state during 48h. E-isomer absorption spectrum in green.
Even though the kinetics has not been fully completed, it can be observed that it occurs much more slowly than photochemical processes.
To obtain an estimation of P aH·Cl Z→E thermal half-live at room temperature, the Z →E thermal reversion kinetics were monitored starting from the 254nm photostationary state at different temperatures (47, 55 and 64 °C). By tracking the absorbance changes at 420 nm, an Arrhenius analysis was performed, allowing the determination of the activation energy (EA) and the estimation of the thermal half-life at 25 °C.

activation energy E A of thermal Z→E reversion [3] [kcal·mol^–1]	Compound	k thermal isomerization Z-P to E-P [1]	k photoisomerization Z-P to E-P [2]
–	C[n+]1ccc([N-]/N=C\C(=O)c2ccccc2)cc1 [Z-P a]	7.2 10^–4 s^–1	2.5 10^–3 s^–1
17.4	C[n+]1ccc(N/N=C\C(=O)c2ccccc2)cc1 [Z-P aH^+]	–	–
